Legend:
[1] = test system: SLCO1B1; test: Effect on expression of SLCO1B1 in HepG2 cells (Western blot); assay type: cell-based, human; conditions: 1, 10, and 100 µM, 24 h incubation
Experimental: The HepG2 cell line was purchased from American Type Culture Collection (Institute of Cytology, Russian Academy of Sciences, Moscow, Russia). Cells were cultured in Dulbecco’s modified Eagle’s medium containing 15% fetal bovine serum, 2 mM l-glutamine, 100 units/mL penicillin G, and 100 μg/mL streptomycin in an atmosphere of 5% CO2 at 37 °C on a 24-well plate until a monolayer was formed. HepG2 cells were used to test the effect of EMHPS on the expression of SLCO1B1.
To test the effect of EMHPS on the expression of ABCB1 and SLCO1B1, Caco-2 or HepG2 cells, respectively, were cultured on a 6-well plate. EMHPS was used at concentrations of 1, 10, and 100 µM, and the duration of exposure was 24 h. After the incubation, the cells were removed from the surface of the wells with a trypsin–EDTA solution (0.25% trypsin and 0.2% EDTA, Sigma-Aldrich, St. Louis, MO, USA).
The expression levels of ABCB1 and SLCO1B1 were analyzed via Western blot.
Cells were lysed with NP40 Cell Lysis Buffer Thermo (Thermo Fisher Scientific) with protease inhibitors (Sigma Aldrich, St. Louis, MO, USA) for 30 min at +4 °C with constant stirring at a rate of 10^7 cells per 100 µL of buffer. Protein concentrations were quantified with the Pierce Coomassie Plus Assay Kit (Thermo Fisher, Rockford, IL, USA). […]

[2] = test system: hemispheric ischemic stroke; set-up: method as in doi:10.1007/s11055-018-0652-y; conditions: 151 patients with hemispheric ischemic stroke; cited from earlier work

CCc1nc(C)ccc1O.O=C(O)CCC(=O)O [EMHPS, 2-Ethyl-6-methyl-3-hydroxypyridine succinate]
effect on expression of SLCO1B1 [1]: did not significantly affect
neurological status compared with the placebo [2]: improved the neurological status
